# Data reported in ChEMBL document CHEMBL1201862, “PubChem BioAssay data set” (2004).
#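 Tested at 5 concentrations; 48 h exposure; 96-well plates; endpoints linearly interpolated, else capped at highest concentration. The concentration for 50% growth inhibition is given as GI50.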 Active and inactive are the calls of the source. Rule as the data show it: active = GI50 up to about 1.1 µM and inactive = higher.
# Key:
# Assay in all cases: NCI tumour cell line growth inhibition, 48 h
# SK-MEL-2 = system: SK-MEL-2
# CCRF-CEM = system: CCRF-CEM
# U-251 = system: U-251
# MOLT-4 = system: MOLT-4
# K562 = system: K562
# EKVX = system: EKVX
# OVCAR-3 = system: OVCAR-3
# HL-60 = system: HL-60
# HCT-15 = system: HCT-15
# A549 = system: A549
# SK-MEL-5 = system: SK-MEL-5
# SK-OV-3 = system: SK-OV-3
# HT-29 = system: HT-29
# NCI-H23 = system: NCI-H23
# NCI-H522 = system: NCI-H522
# LOX IMVI = system: LOX IMVI
# NCI-H460 = system: NCI-H460
# OVCAR-8 = system: OVCAR-8
# UACC-62 = system: UACC-62
# SNB-19 = system: SNB-19
Compound,GI50 (SK-MEL-2),GI50 (CCRF-CEM),GI50 (U-251),GI50 (MOLT-4),GI50 (K562),GI50 (EKVX),GI50 (OVCAR-3),GI50 (HL-60),GI50 (HCT-15),GI50 (A549),GI50 (SK-MEL-5),GI50 (SK-OV-3),GI50 (HT-29),GI50 (NCI-H23),GI50 (NCI-H522),GI50 (LOX IMVI),GI50 (NCI-H460),GI50 (OVCAR-8),GI50 (UACC-62),GI50 (SNB-19)
COc1cc(/C=C/C(=O)Oc2ccc(NC(C)=O)cc2)ccc1C(=O)O/C=C/c1ccccc1,> 100 µM (inactive),> 100 µM (inactive),> 100 µM (inactive),66.8 µM (inactive),> 31.6 µM (inactive),> 100 µM (inactive),> 100 µM (inactive),> 100 µM (inactive),> 100 µM,> 100 µM (inactive),> 100 µM (inactive),> 100 µM (inactive),> 100 µM (inactive),> 100 µM (inactive),> 100 µM (inactive),> 100 µM (inactive),> 100 µM (inactive),> 100 µM (inactive),> 100 µM (inactive),> 100 µM (inactive)
CC(=O)OC1CCC2(C)C(CCC3C2CCC2(C)C(c4ccc(=O)oc4)C(OC(C)=O)CC32O)C1 (configuration not stated),0.0258 µM (active),0.0151 µM (active),0.0184 µM (active),0.0163 µM (active),0.0161 µM (active),0.0168 µM (active),0.0161 µM (active),0.0154 µM (active),0.0136 µM,0.0135 µM (active),0.0164 µM (active),0.0292 µM (active),0.0263 µM (active),0.0154 µM (active),0.016 µM (active),0.0176 µM (active),0.0147 µM (active),0.0171 µM (active),0.0169 µM (active),0.0293 µM (active)
O=C(O)C1CCCCN1c1ccccc1[N+](=O)[O-] (configuration not stated),> 100 µM (inactive),> 100 µM (inactive),> 100 µM (inactive),> 100 µM (inactive),> 100 µM (inactive),> 100 µM (inactive),> 100 µM (inactive),> 100 µM (inactive),> 100 µM,> 100 µM (inactive),> 100 µM (inactive),> 100 µM (inactive),> 100 µM (inactive),> 100 µM (inactive),> 100 µM (inactive),> 100 µM (inactive),> 100 µM (inactive),> 100 µM (inactive),> 100 µM (inactive),> 100 µM (inactive)
CCC(C(=O)O)c1ccc(OC)cc1 (configuration not stated),> 100 µM (inactive),> 100 µM (inactive),> 100 µM (inactive),> 100 µM (inactive),> 100 µM (inactive),> 100 µM (inactive),> 100 µM (inactive),> 100 µM (inactive),–,> 100 µM (inactive),> 100 µM (inactive),> 100 µM (inactive),> 100 µM (inactive),> 100 µM (inactive),> 100 µM (inactive),> 100 µM (inactive),> 100 µM (inactive),–,> 100 µM (inactive),> 100 µM (inactive)
COc1ccc(C[C@H](N)C(=O)N2C[C@H](CO)C[C@H](n3ccc(=O)[nH]c3=O)C2)cc1,> 100 µM (inactive),> 100 µM (inactive),> 100 µM (inactive),> 100 µM (inactive),> 100 µM (inactive),> 100 µM (inactive),> 100 µM (inactive),58.3 µM (inactive),> 100 µM,> 100 µM (inactive),> 100 µM (inactive),> 100 µM (inactive),> 100 µM (inactive),> 100 µM (inactive),> 100 µM (inactive),> 100 µM (inactive),> 100 µM (inactive),> 100 µM (inactive),> 100 µM (inactive),> 100 µM (inactive)
O=C=C=P(c1ccccc1)(c1ccccc1)c1ccccc1,49.5 µM (inactive),76 µM (inactive),72.1 µM (inactive),55.8 µM (inactive),27 µM (inactive),46.7 µM (inactive),–,11.1 µM (inactive),> 100 µM,40.6 µM (inactive),21.5 µM (inactive),48.3 µM (inactive),–,31.3 µM (inactive),–,40.1 µM (inactive),86.9 µM (inactive),72.6 µM (inactive),–,> 100 µM (inactive)
CCOc1ccc(/C(C=O)=C(\Cl)c2ccc(OC)c(OC)c2)cc1,> 100 µM (inactive),> 100 µM (inactive),> 100 µM (inactive),–,> 100 µM (inactive),> 100 µM (inactive),> 100 µM (inactive),11.4 µM (inactive),> 100 µM,–,77.3 µM (inactive),> 100 µM (inactive),> 100 µM (inactive),> 100 µM (inactive),> 100 µM (inactive),> 100 µM (inactive),> 100 µM (inactive),> 100 µM (inactive),68.9 µM (inactive),> 100 µM (inactive)
Clc1ccc(C[P+](c2ccccc2)(c2ccccc2)c2ccccc2)c(Cl)c1,2.18 µM (inactive),2.99 µM (inactive),2.49 µM (inactive),3.3 µM (inactive),–,3.44 µM (inactive),2.58 µM (inactive),0.8 µM (active),24 µM,4.47 µM (inactive),1.38 µM (inactive),3.75 µM (inactive),1.66 µM (inactive),2.89 µM (inactive),1.67 µM (inactive),3.28 µM (inactive),2.4 µM (inactive),2.75 µM (inactive),2.4 µM (inactive),3.04 µM (inactive)
COC(=O)C1C(C)N1C (configuration not stated),–,> 100 µM (inactive),> 100 µM (inactive),> 100 µM (inactive),> 100 µM (inactive),> 100 µM (inactive),> 100 µM (inactive),> 100 µM (inactive),> 100 µM,> 100 µM (inactive),> 100 µM (inactive),> 100 µM (inactive),> 100 µM (inactive),> 100 µM (inactive),> 100 µM (inactive),> 100 µM (inactive),> 100 µM (inactive),> 100 µM (inactive),> 100 µM (inactive),> 100 µM (inactive)
O=C1c2ccccc2C(=O)N1CC(O)COc1cccc2ccccc12 (configuration not stated),–,> 100 µM (inactive),> 100 µM (inactive),> 100 µM (inactive),> 100 µM (inactive),> 100 µM (inactive),> 100 µM (inactive),> 100 µM (inactive),> 100 µM,> 100 µM (inactive),63.5 µM (inactive),> 100 µM (inactive),> 100 µM (inactive),–,> 100 µM (inactive),> 100 µM (inactive),> 100 µM (inactive),> 100 µM (inactive),> 100 µM (inactive),> 100 µM (inactive)
O=C(/C=N/c1ccccc1S)c1ccco1,16.4 µM (inactive),3.14 µM (inactive),5.53 µM (inactive),5.32 µM (inactive),18.2 µM (inactive),10.7 µM (inactive),17.1 µM (inactive),4.17 µM (inactive),7.66 µM,5.11 µM (inactive),17.3 µM (inactive),–,13.3 µM (inactive),4.01 µM (inactive),15.5 µM (inactive),–,–,11.5 µM (inactive),15.5 µM (inactive),4.74 µM (inactive)
CCOC(=O)NC(Nc1ccc(Cl)cn1)(C(F)(F)F)C(F)(F)F,> 100 µM (inactive),> 100 µM (inactive),> 100 µM (inactive),> 100 µM (inactive),> 100 µM (inactive),> 100 µM (inactive),> 100 µM (inactive),> 100 µM (inactive),> 100 µM,–,–,> 100 µM (inactive),> 100 µM (inactive),> 100 µM (inactive),> 100 µM (inactive),> 100 µM (inactive),> 100 µM (inactive),–,> 100 µM (inactive),> 100 µM (inactive)
OC[C@H]1O[C@@H](n2cnc3cncnc32)[C@H](O)[C@@H]1O [NEBULARINE],1.67 µM (inactive),1.32 µM (inactive),1.63 µM (inactive),1.26 µM (inactive),0.679 µM (active),0.605 µM (active),1.65 µM (inactive),0.326 µM (active),0.692 µM,0.904 µM (active),1.67 µM (inactive),0.953 µM (active),0.377 µM (active),1.75 µM (inactive),2.1 µM (inactive),0.977 µM (active),0.593 µM (active),1.17 µM (inactive),1.16 µM (inactive),1.45 µM (inactive)
CCOC(=O)NC(Nc1ncccn1)(C(=O)OCC)C(F)(F)F (configuration not stated),> 100 µM (inactive),> 100 µM (inactive),> 100 µM (inactive),> 100 µM (inactive),> 100 µM (inactive),> 100 µM (inactive),> 100 µM (inactive),> 100 µM (inactive),> 100 µM,> 100 µM (inactive),> 100 µM (inactive),> 10 µM (inactive),> 100 µM (inactive),> 100 µM (inactive),> 100 µM (inactive),> 100 µM (inactive),> 100 µM (inactive),> 100 µM (inactive),63.4 µM (inactive),> 100 µM (inactive)
